The results in this text go back to ChEMBL document CHEMBL4613209, “Quinolone hybrids and their anti-cancer activities: An overview” (Eur J Med Chem, 2019).

One may read the IC50 as the concentration that inhibits the measured activity by half.

In experiment [1] the test system is SMMC-7721. Nature of the experiment: Cytotoxicity against human SMMC7721 cells assessed as reduction in cell viability. It is filed as functional, cell-based.
In experiment [2] the test system is L1210. As to the kind of experiment: Cytotoxicity against mouse L1210 cells assessed as reduction in cell viability. In kind it is functional, cell-based.
In experiment [3] the test system is HL-60. As to the kind of experiment: Cytotoxicity against human HL60 cells assessed as reduction in cell viability. It is filed as functional, cell-based.
Experiment [4] deals with PC-3. Nature of the experiment: Antiproliferative activity against human PC3 cells by CCK8 assay. It is filed as functional, cell-based.
In experiment [5] the test system is HepG2. Nature of the experiment: Antiproliferative activity against human HepG2 cells by CCK8 assay. It is filed as functional, cell-based. A general note: Tetrazolium assays rely on reduction of a dye to a coloured formazan, in cell work by metabolically active cells.
Experiment [6] relates to MCF-10A. Nature of the experiment: Antiproliferative activity against human MCF10A cells by CCK8 assay. In kind it is cell-based.
Experiment [7] concerns HeLa. As to the kind of experiment: Antiproliferative activity against human HeLa cells by CCK8 assay. In kind it is functional, cell-based.
Experiment [8] deals with A549. Nature of the experiment: Antiproliferative activity against human A549 cells by CCK8 assay. It is filed as functional, cell-based.
The subject of experiment [9] is MCF7. Nature of the experiment: Antiproliferative activity against human MCF7 cells by CCK8 assay. In kind it is functional, cell-based.
In experiment [10] the target is RAC-alpha serine/threonine-protein kinase (Homo sapiens, UniProt P31749). Nature of the experiment: Inhibition of PKBalpha (unknown origin).
Experiment [11] has as its target T1, Inhibitor of nuclear factor kappa-B kinase subunit alpha (Homo sapiens, UniProt O15111).
T1 sequence (O15111 whole entry): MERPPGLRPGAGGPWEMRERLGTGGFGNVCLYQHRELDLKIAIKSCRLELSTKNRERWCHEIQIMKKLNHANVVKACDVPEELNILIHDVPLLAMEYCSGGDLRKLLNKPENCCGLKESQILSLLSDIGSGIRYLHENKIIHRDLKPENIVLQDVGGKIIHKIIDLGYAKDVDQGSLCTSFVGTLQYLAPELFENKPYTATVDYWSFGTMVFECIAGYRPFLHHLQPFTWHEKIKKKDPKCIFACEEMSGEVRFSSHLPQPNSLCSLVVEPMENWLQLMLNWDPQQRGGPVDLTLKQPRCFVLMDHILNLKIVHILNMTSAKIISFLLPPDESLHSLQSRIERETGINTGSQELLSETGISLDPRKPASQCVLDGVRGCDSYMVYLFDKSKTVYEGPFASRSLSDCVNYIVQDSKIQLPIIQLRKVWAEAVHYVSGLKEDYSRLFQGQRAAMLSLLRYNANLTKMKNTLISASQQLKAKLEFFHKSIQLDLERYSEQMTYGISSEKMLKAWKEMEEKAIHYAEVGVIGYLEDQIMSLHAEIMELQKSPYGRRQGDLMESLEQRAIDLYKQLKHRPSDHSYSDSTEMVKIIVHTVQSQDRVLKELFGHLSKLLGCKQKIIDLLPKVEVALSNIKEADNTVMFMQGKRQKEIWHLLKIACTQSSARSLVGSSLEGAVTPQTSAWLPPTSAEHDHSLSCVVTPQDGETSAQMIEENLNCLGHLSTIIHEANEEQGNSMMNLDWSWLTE
Nature of the experiment: Inhibition of IKKalpha (unknown origin).

In experiment [12] the target is RAC-gamma serine/threonine-protein kinase (Homo sapiens, UniProt Q9Y243). As to the kind of experiment: Inhibition of PKBgamma (unknown origin).
Experiment [13] has as its target RAC-beta serine/threonine-protein kinase (Homo sapiens, UniProt P31751). Nature of the experiment: Inhibition of PKBbeta (unknown origin).
For experiment [14], the target named is T2, Inhibitor of nuclear factor kappa-B kinase subunit beta (Homo sapiens, UniProt O14920).
T2 sequence (O14920 whole entry): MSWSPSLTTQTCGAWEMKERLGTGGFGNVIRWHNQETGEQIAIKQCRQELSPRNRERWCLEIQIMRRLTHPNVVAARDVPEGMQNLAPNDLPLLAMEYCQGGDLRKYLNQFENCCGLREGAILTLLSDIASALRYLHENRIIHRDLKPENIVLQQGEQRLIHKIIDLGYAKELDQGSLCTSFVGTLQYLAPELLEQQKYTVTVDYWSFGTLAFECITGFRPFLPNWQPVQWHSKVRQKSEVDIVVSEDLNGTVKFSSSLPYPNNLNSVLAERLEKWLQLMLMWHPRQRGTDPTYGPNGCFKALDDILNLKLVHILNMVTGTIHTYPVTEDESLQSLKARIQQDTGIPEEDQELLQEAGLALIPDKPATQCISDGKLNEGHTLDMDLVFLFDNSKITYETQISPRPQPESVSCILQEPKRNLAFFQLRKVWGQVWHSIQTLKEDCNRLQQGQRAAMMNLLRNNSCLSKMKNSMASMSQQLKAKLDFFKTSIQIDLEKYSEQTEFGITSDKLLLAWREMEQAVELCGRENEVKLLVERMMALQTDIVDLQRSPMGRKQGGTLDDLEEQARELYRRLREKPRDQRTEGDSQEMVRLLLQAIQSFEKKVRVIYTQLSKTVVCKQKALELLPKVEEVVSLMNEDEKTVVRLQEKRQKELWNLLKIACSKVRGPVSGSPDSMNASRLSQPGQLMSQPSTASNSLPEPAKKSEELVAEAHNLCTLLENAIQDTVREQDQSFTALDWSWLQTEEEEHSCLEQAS
As to the kind of experiment: Inhibition of IKKbeta (unknown origin).

RAC-beta serine/threonine-protein kinase, sequence (P31751 whole entry): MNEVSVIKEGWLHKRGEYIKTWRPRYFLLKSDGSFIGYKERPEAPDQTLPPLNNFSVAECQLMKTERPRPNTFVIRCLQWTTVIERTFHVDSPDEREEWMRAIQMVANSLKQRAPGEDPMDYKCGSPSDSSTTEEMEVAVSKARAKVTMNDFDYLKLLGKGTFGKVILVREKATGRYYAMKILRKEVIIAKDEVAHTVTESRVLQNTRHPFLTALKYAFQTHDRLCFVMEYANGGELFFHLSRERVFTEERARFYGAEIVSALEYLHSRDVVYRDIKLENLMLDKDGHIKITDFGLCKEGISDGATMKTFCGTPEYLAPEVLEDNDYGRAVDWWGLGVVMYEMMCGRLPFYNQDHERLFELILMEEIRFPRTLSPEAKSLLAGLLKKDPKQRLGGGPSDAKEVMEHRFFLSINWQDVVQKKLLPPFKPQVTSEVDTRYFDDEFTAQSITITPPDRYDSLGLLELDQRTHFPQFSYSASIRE
RAC-gamma serine/threonine-protein kinase, sequence (Q9Y243 whole entry): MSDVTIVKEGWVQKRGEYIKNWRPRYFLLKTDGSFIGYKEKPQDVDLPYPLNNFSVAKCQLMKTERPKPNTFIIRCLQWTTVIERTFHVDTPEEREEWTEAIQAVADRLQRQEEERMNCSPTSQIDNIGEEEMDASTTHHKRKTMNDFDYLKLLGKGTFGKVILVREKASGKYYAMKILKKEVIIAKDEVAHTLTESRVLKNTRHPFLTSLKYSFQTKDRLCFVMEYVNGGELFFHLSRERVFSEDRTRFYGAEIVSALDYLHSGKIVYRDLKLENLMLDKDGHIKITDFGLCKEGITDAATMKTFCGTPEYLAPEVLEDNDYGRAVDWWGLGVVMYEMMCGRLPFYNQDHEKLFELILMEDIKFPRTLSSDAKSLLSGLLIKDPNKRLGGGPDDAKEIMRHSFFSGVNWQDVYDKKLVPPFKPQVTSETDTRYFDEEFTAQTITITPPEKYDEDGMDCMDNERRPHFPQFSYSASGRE
RAC-alpha serine/threonine-protein kinase, sequence (P31749 whole entry): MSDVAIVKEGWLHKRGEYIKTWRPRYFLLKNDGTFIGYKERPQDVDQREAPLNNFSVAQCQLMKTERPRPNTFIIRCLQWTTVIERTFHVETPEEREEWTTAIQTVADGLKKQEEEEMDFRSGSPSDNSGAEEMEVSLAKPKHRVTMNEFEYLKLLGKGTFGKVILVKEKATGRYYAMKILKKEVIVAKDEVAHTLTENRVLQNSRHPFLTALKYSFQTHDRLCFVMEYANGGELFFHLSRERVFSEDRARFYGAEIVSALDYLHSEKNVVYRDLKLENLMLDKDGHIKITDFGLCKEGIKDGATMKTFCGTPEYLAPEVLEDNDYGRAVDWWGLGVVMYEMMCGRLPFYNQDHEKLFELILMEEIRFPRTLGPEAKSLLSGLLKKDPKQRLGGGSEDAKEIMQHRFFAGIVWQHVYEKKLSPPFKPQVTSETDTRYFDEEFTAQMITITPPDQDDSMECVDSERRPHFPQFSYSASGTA

Turning to `CCn1cc(-c2nnc(SC/C(=N/NC(N)=S)c3ccc(C)cc3)[nH]2)c(=O)c2cc(F)c(N3CCN(C)CC3)cc21`, the IC50 in experiment [1], in experiment [2] and in experiment [3] was 2.7 to 27.6 µM in each case.
Turning to `C[C@H]1COc2c(N3CCN(C)CC3)c(F)cc3c(=O)c(C(=O)OCc4cn(CCCCCC(=O)O)nn4)cn1c23`, the IC50 in experiment [4] is 7.8 to 16.5 µM; in [5], 7.8 to 16.5 µM; in experiment [6] it was over 100 µM; in experiment [7], 7.8 to 16.5 µM; in experiment [8], 7.8 to 16.5 µM; in [9], 7.8 to 16.5 µM.
For `O=C(/C=C/c1nc2cc(Br)ccc2[nH]1)c1c(-c2ccccc2)c2cc(Cl)ccc2[nH]c1=O`, the IC50 in [10], in experiment [11], in [12], in experiment [13] and in experiment [14] was 1.64 to 44.5 µM each time.
Regarding `CCn1cc(-c2nnc(SC/C(=N/NC(N)=S)c3ccccc3)[nH]2)c(=O)c2cc(F)c(N3CCN(C)CC3)cc21`, the IC50 in [1], in experiment [2] and in [3] was 2.7 to 27.6 µM in each case.
As to `O=C(CCCCCCC(=O)Nc1ccccc1)NO` [VORINOSTAT], the 50% inhibitory concentration (IC50) in [7] and in [8] was 2.9 to 6.4 µM each time.
As to `CCn1cc(-c2nnc(SC/C(=N/NC(N)=S)c3ccc(F)cc3)[nH]2)c(=O)c2cc(F)c(N3CCN(C)CC3)cc21`, the IC50 in experiment [1], in experiment [2] and in [3] was 2.7 to 8.6 µM throughout.
On to `CCn1cc(-c2nnc(SC/C(=N/NC(N)=S)c3ccc(OC)c(OC)c3)[nH]2)c(=O)c2cc(F)c(N3CCN(C)CC3)cc21`, for which the IC50 in experiment [1], in experiment [2] and in experiment [3] was 2.7 to 27.6 µM throughout.
With `C[C@H]1COc2c(N3CCN(C)CC3)c(F)cc3c(=O)c(C(=O)O)cn1c23` [LEVOFLOXACIN], the IC50 was 64.2 to 100 µM in [4]; 64.2 to 100 µM in experiment [5]; 25.2 µM in experiment [6]; 64.2 to 100 µM in experiment [7]; 64.2 to 100 µM in experiment [8]; 64.2 to 100 µM in experiment [9].
With `CCn1cc(-c2nnc(SC/C(=N/NC(N)=S)c3ccc(O)cc3)[nH]2)c(=O)c2cc(F)c(N3CCN(C)CC3)cc21`, the IC50 in experiment [1], in experiment [2] and in [3] was 2.7 to 8.6 µM in each case.
Turning to `CCn1cc(-c2nnc(SC/C(=N/NC(N)=S)c3ccc(Cl)cc3)[nH]2)c(=O)c2cc(F)c(N3CCN(C)CC3)cc21`, the concentration for half-maximal inhibition (IC50) in experiment [1], in experiment [2] and in experiment [3] was 2.7 to 27.6 µM in each case.
As for `CCn1cc(-c2nnc(SC/C(=N/NC(N)=S)c3ccc(OC)cc3)[nH]2)c(=O)c2cc(F)c(N3CCN(C)CC3)cc21`, the IC50 in [1], in experiment [2] and in [3] was 2.7 to 27.6 µM in each case.
In the case of `C[C@H]1COc2c(N3CCN(C)CC3)c(F)cc3c(=O)c(C(=O)OCc4cn(CCCCCCCC(=O)O)nn4)cn1c23`, the IC50 in experiment [4] is 7.8 to 16.5 µM; in [5], 7.8 to 16.5 µM; in experiment [6] it was over 100 µM; in [7], 7.8 to 16.5 µM; in experiment [8] it was 7.8 to 16.5 µM; in experiment [9], 7.8 to 16.5 µM.
On to `CCn1cc(C(=O)O)c(=O)c2cc(F)c(N3CCN(C)CC3)cc21` [PEFLOXACIN], for which the IC50 in experiment [1], in experiment [2] and in experiment [3] was over 100 µM in each case.
Take `C[C@H]1COc2c(N3CCN(C)CC3)c(F)cc3c(=O)c(C(=O)NCc4cn(CCCCCCC(=O)O)nn4)cn1c23`: the IC50 is 7.8 to 16.5 µM in [4]; 7.8 to 16.5 µM in experiment [5]; over 100 µM in experiment [6]; 7.8 to 16.5 µM in [7]; 7.8 to 16.5 µM in experiment [8]; 7.8 to 16.5 µM in experiment [9].
